Measurements from PubChem BioAssay AID330 (DTP/NCI, 2004).
“And” between values parts separate entries of the source, which are not always exact repeats. Equal values may be shown once. Toxic doses and inconclusive results are not listed.

Test system: P388 leukemia ip, CD2F1 mice, survival T/C
Experiment: NCI In Vivo Anticancer Drug Screen. Data for tumor model P388 Leukemia (intraperitoneal) in CD2F1 (CDF1) mice
Settings: endpoint: median survival time, higher = longer survival
Summary of the method: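 Mice carrying the transplanted tumor received test compound or vehicle. Survival was recorded in each group, and the value is the treated-group measurement divided by that of the vehicle-treated control group.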

[1] = dose: 3.13 mg/kg/injection, schedule: Q01DX009 (ip), vehicle: water
[2] = dose: 6.25 mg/kg/injection, schedule: Q01DX009 (ip), vehicle: water
[3] = dose: 12.5 mg/kg/injection, schedule: Q01DX009 (ip), vehicle: water
[4] = dose: 25.0 mg/kg/injection, schedule: Q01DX009 (ip), vehicle: water

N=C(N)c1ccc(/C=C/c2ccc(C(=N)N)cc2)cc1
T/C (dose: 8.0 mg/kg/injection, schedule: Q01DX009 (ip), vehicle: saline with Tween-80): 119 % of control
T/C (dose: 16.0 mg/kg/injection, schedule: Q01DX009 (ip), vehicle: saline with Tween-80): 122 % of control and 124 % of control
T/C (dose: 32.0 mg/kg/injection, schedule: Q01DX009 (ip), vehicle: saline with Tween-80): 124 % of control
T/C (dose: 64.0 mg/kg/injection, schedule: Q01DX009 (ip), vehicle: Klucel (hydroxypropylcellulose) (HPC)): 177 % of control

COc1ccc2c(c1)CCn1c(C)c(COC(=O)NC(C)C)c(COC(=O)NC(C)C)c1-2
T/C (dose: 12.5 mg/kg/injection, schedule: Q01DX009 (ip), vehicle: distilled water + Tween-80): 153 % of control and 160 % of control
T/C (dose: 25.0 mg/kg/injection, schedule: Q01DX009 (ip), vehicle: distilled water + Tween-80): 153 % of control and 164 % of control

O=C1CC(c2ccccc2)C(=O)N1CN1CC=CCC1 (stereo unspecified)
T/C (dose: 100.0 mg/kg/injection, schedule: Q01DX001 (ip), vehicle: Klucel (hydroxypropylcellulose) (HPC)): 124 % of control

C=C1C(=O)O[C@H]2C[C@H]3O[C@H]3[C@@H]12
T/C (dose: 1.56 mg/kg/injection, schedule: Q01DX009 (ip), vehicle: water): 100 % of control
T/C [1]: 99 % of control
T/C [2]: 98 % of control
T/C [3]: 101 % of control
T/C [4]: 107 % of control

COc1ccccc1-n1c(C)nc2[nH]ncc2c1=O
T/C (dose: 50.0 mg/kg/injection, schedule: Q01DX005 (ip), vehicle: Klucel (hydroxypropylcellulose) (HPC)): 101 % of control
T/C (dose: 100.0 mg/kg/injection, schedule: Q01DX005 (ip), vehicle: Klucel (hydroxypropylcellulose) (HPC)): 97 % of control
T/C (dose: 200.0 mg/kg/injection, schedule: Q01DX005 (ip), vehicle: Klucel (hydroxypropylcellulose) (HPC)): 96 % of control

Nc1ccc(-c2cc3ccc(C4=NCCN4)cc3[nH]2)cc1
T/C (dose: 60.0 mg/kg/injection, schedule: Q01DX005 (ip), vehicle: Klucel (hydroxypropylcellulose) (HPC)): 117 % of control

O=c1oc(-c2cccc(F)c2)ns1
T/C (dose: 100.0 mg/kg/injection, schedule: Q01DX009 (ip), vehicle: Klucel (hydroxypropylcellulose) (HPC)): 115 % of control
T/C (dose: 200.0 mg/kg/injection, schedule: Q01DX009 (ip), vehicle: Klucel (hydroxypropylcellulose) (HPC)): 116 % of control
T/C (dose: 400.0 mg/kg/injection, schedule: Q01DX009 (ip), vehicle: Klucel (hydroxypropylcellulose) (HPC)): 115 % of control

O=C1C2C3C=CC(O3)C2C(=O)N1O (stereo unspecified)
T/C [1]: 102 % of control
T/C [2]: 112 % of control
T/C [3]: 121 % of control
T/C [4]: 118 % of control
T/C (dose: 50.0 mg/kg/injection, schedule: Q01DX009 (ip), vehicle: water): 105 % of control

CC1(CSc2ccccc2)CC(=O)N1 (stereo unspecified)
T/C (dose: 50.0 mg/kg/injection, schedule: Q01DX009 (ip), vehicle: suspension in saline): 111 % of control
T/C (dose: 100.0 mg/kg/injection, schedule: Q01DX009 (ip), vehicle: suspension in saline): 98 % of control
T/C (dose: 200.0 mg/kg/injection, schedule: Q01DX009 (ip), vehicle: suspension in saline): 99 % of control

CC1(C)CCC[C@]2(C)[C@@H](C=O)C(C=O)=CC[C@@H]12
T/C (dose: 3.12 mg/kg/injection, schedule: Q01DX005 (ip), vehicle: Klucel (hydroxypropylcellulose) (HPC)): 102 % of control
T/C (dose: 6.25 mg/kg/injection, schedule: Q01DX005 (ip), vehicle: Klucel (hydroxypropylcellulose) (HPC)): 103 % of control
T/C (dose: 12.5 mg/kg/injection, schedule: Q01DX005 (ip), vehicle: Klucel (hydroxypropylcellulose) (HPC)): 106 % of control

CN1C2CCC1CC(OC(=O)C(CO)c1ccccc1)C2 (stereo unspecified)
T/C (dose: 12.5 mg/kg/injection, schedule: Q01DX009 (ip), vehicle: saline with Tween-80): 105 % of control and 95 % of control
T/C (dose: 25.0 mg/kg/injection, schedule: Q01DX009 (ip), vehicle: saline with Tween-80): 100 % of control and 111 % of control
T/C (dose: 50.0 mg/kg/injection, schedule: Q01DX009 (ip), vehicle: saline with Tween-80): 103 % of control and 92 % of control
T/C (dose: 100.0 mg/kg/injection, schedule: Q01DX009 (ip), vehicle: saline with Tween-80): 100 % of control and 95 % of control
T/C (dose: 150.0 mg/kg/injection, schedule: Q01DX009 (ip), vehicle: saline with Tween-80): 112 % of control and 95 % of control

OCC[Se][Se]CCO
T/C (dose: 1.25 mg/kg/injection, schedule: Q01DX009 (ip), vehicle: Klucel (hydroxypropylcellulose) (HPC)): 103 % of control
T/C (dose: 2.5 mg/kg/injection, schedule: Q01DX009 (ip), vehicle: Klucel (hydroxypropylcellulose) (HPC)): 100 % of control
T/C (dose: 5.0 mg/kg/injection, schedule: Q01DX009 (ip), vehicle: Klucel (hydroxypropylcellulose) (HPC)): 103 % of control

Cc1cc(N=Cc2c(CO)cnc(C)c2O)c(N=Cc2c(CO)cnc(C)c2O)cc1C.[Zn]
T/C (dose: 50.0 mg/kg/injection, schedule: Q01DX005 (ip), vehicle: saline with Tween-80): 100 % of control
T/C (dose: 100.0 mg/kg/injection, schedule: Q01DX005 (ip), vehicle: saline with Tween-80): 99 % of control
T/C (dose: 200.0 mg/kg/injection, schedule: Q01DX005 (ip), vehicle: saline with Tween-80): 100 % of control
